Laboratory results from publication PMC8778818, “Synthesis, Structural Characterization and Anticancer Activity of New 5-Trifluoromethyl-2-thioxo-thiazolo[4,5-d]pyrimidine Derivatives” (Pharmaceuticals, 2022).

How the values were obtained:
CCRF-CEM = experiment: NCI-60 screen, Leukemia CCRF-CEM; assay type: cell-based, human; details: 10^−5 M one dose
MOLT-4 = experiment: NCI-60 screen, Leukemia MOLT-4; assay type: cell-based, human; details: MOLT-4, 10^−5 M one dose
COLO-205 = experiment: NCI-60 screen, Colon Cancer COLO-205; assay type: cell-based, human; details: COLO-205, 10^−5 M one dose
HCT-15 = experiment: NCI-60 screen, Colon Cancer HCT-15; assay type: cell-based; details: HCT-15, 10^−5 M one dose
HT29 = experiment: NCI-60 screen, Colon Cancer HT29; assay type: cell-based, human; details: HT29, 10^−5 M one dose
KM12 = experiment: NCI-60 screen, Colon Cancer KM12; assay type: cell-based, human; details: KM12, 10^−5 M one dose
SW620 = experiment: NCI-60 screen, Colon Cancer SW620; assay type: cell-based, human; details: SW620, 10^−5 M one dose
SF-295 = experiment: NCI-60 screen, CNS Cancer SF-295; assay type: cell-based, human; details: SF-295, 10^−5 M one dose
SNB-19 = experiment: NCI-60 screen, CNS Cancer SNB-19; assay type: cell-based, human; details: SNB-19, 10^−5 M one dose
MDA-MB-435 = experiment: NCI-60 screen, Melanoma MDA-MB-435; assay type: cell-based, human; details: MDA-MB-435, 10^−5 M one dose
Procedure: (§1) The search for the cytotoxic activity of new derivatives usually starts with in vitro cell-based screening. Four compounds 2b (NSC D-745983/1), 3b (NSC D-766111/1), 4b (NSC D-785591/1) and 4c (NSC D-771706/1), selected by the National Cancer Institute were tested in the anticancer screen for a panel of approximately 60 human disease-oriented tumor cell lines, organized into subpanels derived from nine human cancer types—leukemia, melanoma, and cancers of the lung, colon, brain, breast, ovary, prostate, and kidney. They were initially tested at only one concentration of 10 µM (10^−5 M) for each cell line, which were inoculated and preincubated on a microtiter plate for […]. The results of the one-dose anticancer assay for the tested new compounds are reported as the percentage of the treated cell growth in comparison with untreated no-drug control. This allows for detection of the growth inhibition—values 0–100 and cytotoxicity; negative numbers mean cell death.
(§2) Antitumor activity in five dose testing (10^−4−10^−8 M) is expressed by three different dose–response parameters for each of the 60 human tumor cell lines. The GI50 value (molar concentration causing a half-growth inhibition), TGI (molar concentration required for total growth inhibition), which signifies the cytostatic effect, and LC50 (molar concentration of the compound required for 50% cell death). LC50 signifies the cytotoxic effect. […] Nevertheless, the selectivity for GI50 can be seen for several cell lines within subpanel leukemia (SR, log GI50 −6.36) and non-small cell lung cancer (NCI-H522, log GI50 −6.69).
(§3) The antitumor screening (NCI-60) was performed at the National Cancer Institute, Bethesda, USA. A total panel of approximately 60 human tumor cell lines derived from nine different cancer types (leukemia, non-small cell lung, colon, brain, melanoma, ovarian, renal, prostate and breast) formed the basis of this in vitro test. The origins and processing of the cell lines used in the study were described previously. First, the compounds were evaluated in a primary anticancer assay at 10^−5 M. Results for each tested compound are reported as the percent of growth of the treated cells. […] The human tumor cell lines of the cancer screening panel were grown in an RMPI 1640 medium containing 5% fetal bovine serum and 2 mM of L-glutamine. Each cell line was inoculated and preincubated at 37 °C, 5% CO2, 95% air and 100% relative humidity for 24 h, before the addition of the test compound into 96-well microtiter plates in 100 µL at plating densities ranging from 5000 to 40,000 cells/well. The density of inoculum depends on the type of tumor cell and its growth characteristics. The screened compounds were solubilized in dimethyl sulfoxide at 400-fold the desired final concentration and stored frozen. At the time of the test agents’ addition, an aliquot of frozen concentrate was thawed and diluted to twice the desired final concentration with complete medium containing 50 µg/mL gentamicin. Next, the test compounds were evaluated at the four additional 10-fold dilutions to reach the final concentrations plus control. Aliquots of 100 µL of the different dilutions (100, 10, 1, […] µM/mL) of the tested compounds were added to microtiter wells, and the culture was incubated for 48 h under the same conditions. Cell were fixed in situ by the addition of 50 µL of cold 50% trichloroacetic acid and incubated for 60 min at 4 °C. The supernatant was discarded; plates were washed five times with water and air-dried. Sulforhodamine B at 0.4% in 1% acetic acid, 100 µL, was added to each well, then plates were incubated for 10 min at room temperature. Unbound dye was removed by washing five times with 1% acetic acid and air dried. The protein-bound stain was solubilized with a […] trizma base and the absorbance was read on an automated plate reader. A wavelength of 515 nm was used to read optical densities. […]

SK-MEL-2 = experiment: NCI-60 screen, Melanoma SK-MEL-2; assay type: cell-based, human; details: SK-MEL-2, 10^−5 M one dose
UACC-62 = experiment: NCI-60 screen, Melanoma UACC-62; assay type: cell-based, human; details: UACC-62, 10^−5 M one dose
OVCAR-4 = experiment: NCI-60 screen, Ovarian Cancer OVCAR-4; assay type: cell-based, human; details: OVCAR-4, 10^−5 M one dose
SK-OV-3 = experiment: NCI-60 screen, Ovarian Cancer SK-OV-3; assay type: cell-based, human; details: SK-OV-3, 10^−5 M one dose
ACHN = experiment: NCI-60 screen, Renal Cancer ACHN; assay type: cell-based, human; details: 10^−5 M one dose
RXF 393 = experiment: NCI-60 screen, Renal Cancer RXF 393; assay type: cell-based, human; details: RXF 393, 10^−5 M one dose
MCF7 = experiment: NCI-60 screen, Breast Cancer MCF7; assay type: cell-based, human; details: MCF7, 10^−5 M one dose
HS 578T = experiment: NCI-60 screen, Breast Cancer HS 578T; assay type: cell-based, human; details: 10^−5 M one dose
BT-549 = experiment: NCI-60 screen, Breast Cancer BT-549; assay type: cell-based, human; details: BT-549, 10^−5 M one dose
MDA-MB-468 = experiment: NCI-60 screen, Breast Cancer MDA-MB-468; assay type: cell-based, human; details: MDA-MB-468, 10^−5 M one dose
Procedure: as §1, §2, §3

Compound | Growth of Cells (%) (CCRF-CEM) | Growth of Cells (%) (MOLT-4) | Growth of Cells (%) (COLO-205) | Growth of Cells (%) (HCT-15) | Growth of Cells (%) (HT29) | Growth of Cells (%) (KM12) | Growth of Cells (%) (SW620) | Growth of Cells (%) (SF-295) | Growth of Cells (%) (SNB-19) | Growth of Cells (%) (MDA-MB-435) | Growth of Cells (%) (SK-MEL-2) | Growth of Cells (%) (UACC-62) | Growth of Cells (%) (OVCAR-4) | Growth of Cells (%) (SK-OV-3) | Growth of Cells (%) (ACHN) | Growth of Cells (%) (RXF 393) | Growth of Cells (%) (MCF7) | Growth of Cells (%) (HS 578T) | Growth of Cells (%) (BT-549) | Growth of Cells (%) (MDA-MB-468)
O=c1[nH]c(C(F)(F)F)nc2c1sc(=S)n2-c1ccccc1 [Compound 2b, 3-phenyl-2-thioxo-5-(trifluoromethyl)-2,3-dihydro[1, 3]thiazolo[4,5-d]pyrimidin-7(6H)-one] | 96.48% | 117.56% | 114.26% | 106.95% | 100.96% | 100.96% | 95.09% | 116.63% | 102.20% | 114.64% | 97.36% | 109.52% | 117.19% | 108.53% | 110.42% | 95.34% | 111.19% | 65.01% | 130.31% | 91.37%
CCNc1nc(C(F)(F)F)nc2c1sc(=S)n2-c1ccccc1 [Compound 4b, 7-(ethylamino)-3-phenyl-5-(trifluoromethyl)[1, 3]thiazolo[4,5-d]pyrimidine-2(3H)-thione] | – | 81.83% | 105.73% | 94.67% | 88.76% | 89.17% | 106.24% | 94.05% | 106.58% | 112.84% | 88.08% | 93.86% | 98.24% | 101.70% | 93.13% | 100.09% | 96.38% | 106.83% | 95.21% | 81.60%
